One may read the Emax as the maximal effect, on the per cent scale that the assay sets. One may read the EC50 as the concentration that produces a half-maximal response.

In this assay the target is T1, Kv7.2 (Homo sapiens, UniProt O43526).
T1 construct: expressed in transfected cells
The experiment in a line: Activation of Kv7.2 (in vitro assay, concentration response curve). The note with it: for Emax: Kv7.2 activation max %; for EC50: activation of Kv7.2. Type of assay: cell-based. In short, it runs like this:
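Agonist activity was measured in vitro across a range of compound concentrations and plotted as a sigmoidal concentration–response curve. EC50 is the concentration giving 50% of that compound's own maximal response (Emax).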

The compound `O=C(NCc1ccnc(OC(F)F)c1)N[C@H](C1CCC1)C(F)(F)F` [Example 241, 1-[(1R)-1-cyclobutyl-2,2,2-trifluoroethyl]-3-[[2-(difluoromethoxy)pyridin-4-yl]methyl]urea] displayed an Emax of 68% and an EC50 of 70 nM.
For `O=C(NCc1ccnc(OC(F)F)c1)N[C@@H](C1CCC1)C(F)(F)F` [Example 242, 1-[(1S)-1-cyclobutyl-2,2,2-trifluoroethyl]-3-[[2-(difluoromethoxy)pyridin-4-yl]methyl]urea] the same measures were 51% and 750 nM.
For `O=C(NCc1ccnc(OC(F)F)n1)N[C@H]1C[C@H](C(F)(F)F)C1` [Example 243, 1-[[2-(difluoromethoxy)pyrimidin-4-yl]methyl]-3-[(1r,3r)-3-(trifluoromethyl)cyclobutyl]urea] the same measures were 42% and 760 nM.
For `O=C(NCc1ccnc(OC(F)F)c1)Nc1cc(F)ccc1F` [Example 244, 1-[[2-(difluoromethoxy)pyridin-4-yl]methyl]-3-(2,5-difluorophenyl)urea] the same measures were 50% and 250 nM.
For `O=C(NCc1ccnc(OCC(F)(F)F)c1)Nc1cc(F)ccc1F` [Example 245, 1-(2,5-difluorophenyl)-3-[[2-(2,2,2-trifluoroethoxy)pyridin-4-yl]methyl]urea], the Emax was 54% and the EC50 turned out to be 50 nM.
For `O=C(NCc1ccnc(OC(F)F)c1)NC1(C23CC(C2)C3)CC1` [Example 246, 1-[1-(1-bicyclo[1.1.1]pentanyl)cyclopropyl]-3-[[2-(difluoromethoxy)pyridin-4-yl]methyl]urea] the same measures were 60% and 540 nM.
Turning to `O=C(NCc1ccnc(OC(F)F)c1)Nc1cccc(F)c1F` [Example 247, 1-[[2-(difluoromethoxy)pyridin-4-yl]methyl]-3-(2,3-difluorophenyl)urea], the Emax turned out to be 53% and the EC50 was found to be 90 nM.
In turn, `O=C(NCc1ccnc(OCC(F)(F)F)c1)Nc1cccc(F)c1F` [Example 248, 1-(2,3-difluorophenyl)-3-[[2-(2,2,2-trifluoroethoxy)pyridin-4-yl]methyl]urea] showed an Emax of 62% and an EC50 of 140 nM.
The compound `O=C(NCc1ccnc(OCF)c1)Nc1ccc(F)c(F)c1` [Example 249, 1-(3,4-difluorophenyl)-3-[[2-(fluoromethoxy)pyridin-4-yl]methyl]urea] returned an Emax of 43% and an EC50 of 260 nM.
The matching figures for `O=C(NCc1ccnc(OC(F)F)c1)N[C@@H]1CCC[C@H](C(F)(F)F)C1` [Example 250, 1-[[2-(difluoromethoxy)pyridin-4-yl]methyl]-3-[(1R,3S)-3-(trifluoromethyl)cyclohexyl]urea]: 75% and 120 nM.
In turn, `[2H]C([2H])(NC(=O)NC12CCC(F)(CC1)CC2)c1ccnc(OC(F)F)c1` [Example 251, 1-[dideuterio-[2-(difluoromethoxy)pyridin-4-yl]methyl]-3-(4-fluoro-1-bicyclo[2.2.2]octanyl)urea] displayed an Emax of 60% and a half-maximal effective concentration (EC50) of 130 nM.
Turning to `O=C(NCc1ccnc(OC(F)F)c1)NCC(C(F)(F)F)C(F)(F)F` [Example 252, 1-[[2-(difluoromethoxy)pyridin-4-yl]methyl]-3-[3,3,3-trifluoro-2-(trifluoromethyl)propyl]urea], the Emax came out at 73% and the midpoint of the response, the EC50, lay at 720 nM.
As for `O=C(NCc1ccnc(OC(F)F)c1)NC(C1CC1)C1CC1` [Example 253, 1-(dicyclo-propylmethyl)-3-[[2-(difluoromethoxy)pyridin-4-yl]methyl]urea], the Emax was determined as 70% and the response was half-maximal at 320 nM (EC50).
For `O=C(NCc1ccnc(OCC(F)(F)F)c1)NC1(C2CC(F)(F)C2)CC1` [Example 254, 1-[1-(3,3-difluorocyclobutyl)cyclopropyl]-3-[[2-(2,2,2-trifluoroethoxy)pyridin-4-yl]methyl]urea] the same measures were 40% and 1010 nM.
The matching figures for `O=C(Nc1cc(F)cc(F)c1)NC(CO)c1ccnc(OCC(F)(F)F)c1` (centres unmarked) [Example 256, 1-(3,5-difluorophenyl)-3-[2-hydroxy-1-[2-(2,2,2-trifluoroethoxy)pyridin-4-yl]ethyl]urea]: 84% and 30 nM.
As to `O=C(NCc1ccnc(OCC(F)(F)F)c1)N[C@H](C1CC1)C(F)(F)F` [Example 257, 1-[(1R)-1-cyclopropyl-2,2,2-trifluoroethyl]-3-[[2-(2,2,2-trifluoroethoxy)pyridin-4-yl]methyl]urea], the Emax is 61% and the EC50 stood at 240 nM.
For `O=C(NCc1ccnc(OC(F)F)c1)NC1COC(C(F)(F)F)C1` (centres unmarked) [Example 258, 1-[[2-(difluoromethoxy)pyridin-4-yl]methyl]-3-[5-(trifluoromethyl)oxolan-3-yl]urea] the same measures were 53% and 500 nM.
`O=C(Nc1cccc(Cl)c1)NC(CO)c1ccnc(OCC(F)F)c1` (centres unmarked) [Example 259, 1-(3-chlorophenyl)-3-[1-[2-(2,2-difluoroethoxy)pyridin-4-yl]-2-hydroxyethyl]urea] displayed an Emax of 63% and an EC50 of 240 nM.
The compound `O=C(NCc1ccnc(SC(F)F)c1)N[C@H]1C[C@H](C(F)(F)F)C1` [Example 260, 1-[[2-(difluoro-methylsulfanyl)pyridin-4-yl]methyl]-3-[(1r,3r)-3-(trifluoromethyl)cyclobutyl]urea] had an Emax of 51% and an EC50 of 370 nM.
Compound `Cc1cc(NC(=O)NCc2ccnc(OC(F)F)c2)ccc1F` [Example 261, 1-[[2-(difluoromethoxy)pyridin-4-yl]methyl]-3-(4-fluoro-3-methylphenyl)urea] came in with an Emax of 40% and an EC50 of 70 nM.
For `O=C(NCc1ccnc(OC(F)F)c1)Nc1cccc(OC(F)F)c1` [Example 262, 1-[3-(difluoromethoxy)phenyl]-3-[[2-(difluoromethoxy)pyridin-4-yl]methyl]urea] the same measures were 65% and 3510 nM.
For `O=C(NCc1ccnc(OC(F)F)c1)NC1CCC(OC(F)F)C1` (centres unmarked) [Example 264, 1-[3-(difluoromethoxy)cyclopentyl]-3-[[2-(difluoromethoxy)pyridin-4-yl]methyl]urea] the same measures were 49% and 430 nM.
As to `O=C(NCc1ccnc(OC(F)F)c1)N[C@H]1C[C@@H](OC(F)F)C1` [Example 265, 1-[(1s,3s)-3-(difluoromethoxy)cyclobutyl]-3-[[2-(difluoromethoxy)pyridin-4-yl]methyl]urea], the Emax was determined as 47% and the EC50 was determined as 470 nM.
The matching figures for `O=C(NCc1ccnc(OC(F)F)c1)N[C@H]1CC[C@H](OC(F)F)CC1` [Example 266, 1-[(1r,4r)-4-(difluoromethoxy)cyclohexyl]-3-[[2-(difluoromethoxy)pyridin-4-yl]methyl]urea]: 49% and 300 nM.
`O=C(NCc1ccnc(OC(F)F)c1)NC1CC(OC(F)(F)F)C1` (centres unmarked) [Example 267, 1-[[2-(difluoromethoxy)pyridin-4-yl]methyl]-3-[3-(trifluoromethoxy)cyclobutyl]urea]: the Emax turned out to be 51% and the EC50 stood at 290 nM.
The compound `CC(CNC(=O)NCc1ccnc(OC(F)F)c1)OC(F)F` (centres unmarked) [Example 268, 1-[2-(difluoromethoxy)propyl]-3-[[2-(difluoromethoxy)pyridin-4-yl]methyl]urea] had an Emax of 39% and an EC50 of 1880 nM.
The matching figures for `O=C(NCc1ccnc(OCC(F)(F)F)c1)N[C@H]1C[C@@H](F)C1` [Example 269, 1-((1s,3s)-3-fluorocyclobutyl)-3-[[2-(2,2,2-trifluoroethoxy)pyridin-4-yl]methyl]urea]: 46% and 350 nM.
For `O=C(Nc1cccc(Cl)c1F)NC(CO)c1ccnc(OC(F)F)c1` (centres unmarked) [Example 270, 1-(3-chloro-2-fluorophenyl)-3-[1-[2-(difluoromethoxy)pyridin-4-yl]-2-hydroxyethyl]urea] the same measures were 65% and 170 nM.
Compound `O=C(NCc1ccnc(OC(F)F)c1)N[C@H]1[C@@H]2CC(F)(F)C[C@@H]21` [Example 271, 1-[[2-(difluoromethoxy)pyridin-4-yl]methyl]-3-[rac-(1R,5S,6R)-3,3-difluoro-6-bicyclo[3.1.0]hexanyl]urea] showed an Emax of 42% and an EC50 of 340 nM.
For `O=C(NCc1ccnc(OC(F)F)c1)Nc1ccc(F)c(F)c1F` [Example 272, 1-[[2-(difluoromethoxy)pyridin-4-yl]methyl]-3-(2,3,4-trifluorophenyl)urea] the same measures were 44% and 910 nM.
With `O=C(NCc1ccnc(OC(F)F)c1)N[C@@H](CC(F)(F)F)C(F)(F)F` [Example 273, 1-[[2-(difluoromethoxy)pyridin-4-yl]methyl]-3-[(2S)-1,1,1,4,4,4-hexafluorobutan-2-yl]urea], the Emax turned out to be 48% and the EC50 came to 890 nM.
`O=C(NCc1ccnc(CC(F)(F)F)c1)Nc1ccc(F)c(F)c1` [Example 274, 1-(3,4-difluorophenyl)-3-[[2-(2,2,2-trifluoroethyl)pyridin-4-yl]methyl]urea] came in with an Emax of 48% and an EC50 of 360 nM.
`O=C(NCc1ccnc(CC(F)(F)F)c1)Nc1cccc(Cl)c1` [Example 275, 1-(3-chlorophenyl)-3-[[2-(2,2,2-trifluoroethyl)pyridin-4-yl]methyl]urea]: the Emax worked out at 59% and the EC50 was found to be 550 nM.
The matching figures for `O=C(NCc1cc(OC(F)F)ncc1F)N[C@H]1C[C@H](C(F)(F)F)C1` [Example 277, 1-[[2-(difluoromethoxy)-5-fluoropyridin-4-yl]methyl]-3-[(1r,3r)-3-(trifluoromethyl)cyclobutyl]urea]: 58% and 330 nM.
